From the supplement of paper PMC6045584
± gives the standard deviation of the averaged measurements.

Key:
SAPACITABINE = compound: CCCCCCCCCCCCCCCC(=O)Nc1ccn([C@@H]2O[C@H](CO)[C@@H](O)[C@@H]2C#N)c(=O)n1 [SAPACITABINE]; test: surviving fraction relative to DMSO-only wells; higher = less growth inhibition; conditions: exposure time: 5 days
Summary of the method: (§1)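 For each tumour cell line, log-phase cells were put into 384-well plates at 250–500 cells per well, then after 24 hours exposed continuously for five days to inhibitors at 0.5, 1, 5, 10, 50, 100, 500 and 1000 nM. Viability was assessed by CellTiter-Glo luminescence, with surviving fraction expressed relative to the median of DMSO-only wells. Lines were screened three times and retained only if replicate Pearson r exceeded 0.7 and median Z' exceeded 0.3.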

BI-2536 = compound: CC[C@@H]1C(=O)N(C)c2cnc(Nc3ccc(C(=O)NC4CCN(C)CC4)cc3OC)nc2N1C1CCCC1 [BI-2536]; test: as above; conditions: exposure time: 5 days
Summary of the method: as §1

| Test System | surviving fraction (SAPACITABINE; 0.5 nM) | surviving fraction (SAPACITABINE; 1 nM) | surviving fraction (SAPACITABINE; 5 nM) | surviving fraction (SAPACITABINE; 10 nM) | surviving fraction (SAPACITABINE; 50 nM) | surviving fraction (SAPACITABINE; 100 nM) | surviving fraction (SAPACITABINE; 500 nM) | surviving fraction (SAPACITABINE; 1000 nM) | surviving fraction (BI-2536; 0.5 nM) | surviving fraction (BI-2536; 1 nM) | surviving fraction (BI-2536; 5 nM) | surviving fraction (BI-2536; 10 nM) | surviving fraction (BI-2536; 50 nM) | surviving fraction (BI-2536; 100 nM) | surviving fraction (BI-2536; 500 nM) | surviving fraction (BI-2536; 1000 nM) |
| --- | --- | --- | --- | --- | --- | --- | --- | --- | --- | --- | --- | --- | --- | --- | --- | --- |
| 22RV1 PROSTATE | 0.89 ± 0.094 | 1.06 ± 0.16 | 0.894 ± 0.042 | 0.8687 ± 0.0045 | 0.746 ± 0.12 | 0.692 ± 0.099 | 0.333 ± 0.029 | 0.199 ± 0.034 | 1.01 ± 0.1 | 0.973 ± 0.029 | 0.1 ± 0.016 | 0.085 ± 0.012 | 0.159 ± 0.0085 | 0.221 ± 0.012 | 0.216 ± 0.013 | 0.213 ± 0.014 |
| SG28 HEADNECK | 0.756 ± 0.14 | 0.629 ± 0.18 | 0.721 ± 0.26 | 0.216 ± 0.099 | 0.996 ± 0.12 | 0.864 ± 0.054 | 0.934 ± 0.11 | 0.422 ± 0.0014 | 1.19 ± 0.14 | 1.063 ± 0.0017 | 0.864 ± 0.04 | 0.87 ± 0.046 | 0.961 ± 0.11 | 0.687 ± 0.064 | 0.478 ± 0.084 | 0.279 ± 0.053 |
| OS25HAL BONE | 0.868 ± 0.022 | 0.8983 ± 0.0076 | 0.834 ± 0.0066 | 0.855 ± 0.059 | 0.974 ± 0.036 | 0.925 ± 0.015 | 0.293 ± 0.019 | 0.15 ± 0.014 | 1.003 ± 0.006 | 0.933 ± 0.064 | 0.0997 ± 0.016 | 0.0533 ± 0.0029 | 0.0483 ± 0.0015 | 0.0337 ± 0.004 | 0.0317 ± 0.0023 | 0.037 ± 0.002 |
| HMT3552 BREAST | 0.838 ± 0.009 | 0.825 ± 0.075 | 0.943 ± 0.027 | 0.887 ± 0.053 | 1.141 ± 0.0031 | 1 ± 0.093 | 0.418 ± 0.019 | 0.303 ± 0.024 | 0.781 | 0.352 | 0.14 | 0.192 | 0.221 | 0.205 | 0.121 | 0.11 |
| NY BONE | 0.923 ± 0.043 | 0.872 ± 0.042 | 0.911 ± 0.024 | 0.812 ± 0.026 | 0.368 ± 0.02 | 0.262 ± 0.011 | 0.133 ± 0.0087 | 0.147 ± 0.0076 | 0.988 ± 0.025 | 0.851 ± 0.01 | 0.051 ± 0.0035 | 0.0633 ± 0.0051 | 0.17 ± 0.023 | 0.305 ± 0.0079 | 0.372 ± 0.0087 | 0.298 ± 0.03 |
| KPD BONE | 0.887 ± 0.013 | 0.886 ± 0.043 | 0.977 ± 0.045 | 0.946 ± 0.1 | 0.926 ± 0.024 | 0.815 ± 0.013 | 0.52 ± 0.028 | 0.344 ± 0.017 | 0.919 ± 0.06 | 0.925 ± 0.022 | 0.79 ± 0.024 | 0.482 ± 0.016 | 0.205 ± 0.012 | 0.197 ± 0.011 | 0.113 ± 0.0035 | 0.0597 ± 0.0038 |
| G292 BONE | 0.947 ± 0.056 | 0.955 ± 0.026 | 0.927 ± 0.059 | 0.899 ± 0.061 | 0.618 ± 0.028 | 0.482 ± 0.012 | 0.326 ± 0.011 | 0.299 ± 0.0036 | 0.9403 ± 0.0023 | 0.659 ± 0.042 | 0.254 ± 0.012 | 0.23 ± 0.013 | 0.161 ± 0.011 | 0.128 ± 0.0057 | 0.0832 ± 0.0094 | 0.0727 ± 0.0063 |
| SUM149.B1*.S BREAST | 0.918 ± 0.067 | 0.792 ± 0.011 | 0.888 ± 0.01 | 0.455 ± 0.022 | 0.839 ± 0.023 | 0.567 ± 0.066 | 0.281 ± 0.022 | 0.428 ± 0.022 | 1.1 ± 0.091 | 1.05 ± 0.03 | 0.416 ± 0.067 | 0.232 ± 0.031 | 0.269 ± 0.032 | 0.287 ± 0.021 | 0.297 ± 0.045 | 0.229 ± 0.03 |
| CAL51 BREAST | 0.878 ± 0.1 | 0.838 ± 0.14 | 0.977 ± 0.074 | 0.929 ± 0.1 | 0.789 ± 0.0083 | 0.533 ± 0.13 | 0.112 ± 0.022 | 0.0657 ± 0.014 | 0.966 ± 0.057 | 0.87 ± 0.062 | 0.0793 ± 0.0041 | 0.0425 ± 0.0026 | 0.0333 ± 0.0013 | 0.0258 ± 0.0033 | 0.0175 ± 0.00087 | 0.0207 ± 0.00076 |
| LM7 BONE | 0.703 ± 0.044 | 0.708 ± 0.036 | 0.761 ± 0.015 | 0.641 ± 0.077 | 0.599 ± 0.037 | 0.4143 ± 0.0032 | 0.191 ± 0.036 | 0.162 ± 0.021 | 0.925 ± 0.054 | 0.688 ± 0.027 | 0.0677 ± 0.0055 | 0.076 ± 0.0056 | 0.137 ± 0.013 | 0.128 ± 0.025 | 0.0773 ± 0.004 | 0.0653 ± 0.012 |
| HCC38 BREAST | 0.958 ± 0.075 | 0.931 ± 0.092 | 1.02 ± 0.21 | 0.801 ± 0.02 | 0.594 ± 0.17 | 0.525 ± 0.04 | 0.414 ± 0.086 | 0.274 ± 0.088 | 1.08 ± 0.078 | 1.15 ± 0.18 | 0.289 ± 0.021 | 0.247 ± 0.038 | 0.219 ± 0.025 | 0.254 ± 0.017 | 0.191 ± 0.019 | 0.115 ± 0.024 |
| SG31 HEADNECK | 0.933 ± 0.053 | 0.946 ± 0.043 | 0.814 ± 0.079 | 0.464 ± 0.015 | 0.919 ± 0.071 | 0.947 ± 0.16 | 0.792 ± 0.072 | 0.642 ± 0.033 | 1.09 ± 0.11 | 1.27 ± 0.057 | 0.77 ± 0.099 | 0.603 ± 0.03 | 0.531 ± 0.031 | 0.573 ± 0.029 | 0.49 ± 0.034 | 0.438 ± 0.064 |
| OSHN BONE | 0.902 ± 0.034 | 0.917 ± 0.024 | 0.92 ± 0.013 | 0.891 ± 0.014 | 0.998 ± 0.02 | 0.928 ± 0.011 | 0.345 ± 0.032 | 0.158 ± 0.011 | 1.09 ± 0.019 | 1.075 ± 0.0046 | 0.874 ± 0.072 | 0.027 ± 0.001 | 0.0297 ± 0.00058 | 0.022 ± 0.001 | 0.0237 ± 0.0021 | 0.0237 ± 0.0011 |
| CASKI CERVIX | 0.804 ± 0.055 | 0.843 ± 0.048 | 0.795 ± 0.026 | 0.746 ± 0.04 | 1.02 ± 0.053 | 0.936 ± 0.036 | 0.45 ± 0.019 | 0.268 ± 0.0036 | 0.739 ± 0.024 | 0.427 ± 0.068 | 0.0607 ± 0.011 | 0.0583 ± 0.0064 | 0.0967 ± 0.015 | 0.075 | 0.0153 ± 0.0021 | 0.0183 ± 0.00058 |
| HS578T BREAST | 0.81 ± 0.081 | 0.76 ± 0.082 | 0.841 ± 0.024 | 0.899 ± 0.077 | 1.13 ± 0.1 | 0.987 ± 0.19 | 0.681 ± 0.061 | 0.668 ± 0.13 | 0.828 ± 0.093 | 0.73 ± 0.075 | 0.253 ± 0.013 | 0.196 ± 0.02 | 0.131 ± 0.015 | 0.132 ± 0.025 | 0.144 ± 0.0045 | 0.135 ± 0.012 |
